Data: US6645991B1, “αvβ3 integrin inhibitors” (Merck Patent GmbH, priority 1999, dated 2003)

Molecular target: receptor αvβ3 (Homo sapiens, UniProt P05106+P06756)
Assay: vitronectin binding test (method of Smith et al.)
Text: For the vitronectin binding test, the IC50 value is given, i.e. the concentration in nmol/litre which inhibits 50% of the vitronectin binding to the corresponding isolated receptor (method of Smith et al., J. Biol. Chem. 265, 12267-71, 1990).

receptor αvβ3, sequence (P06756 31-889 limits assumed): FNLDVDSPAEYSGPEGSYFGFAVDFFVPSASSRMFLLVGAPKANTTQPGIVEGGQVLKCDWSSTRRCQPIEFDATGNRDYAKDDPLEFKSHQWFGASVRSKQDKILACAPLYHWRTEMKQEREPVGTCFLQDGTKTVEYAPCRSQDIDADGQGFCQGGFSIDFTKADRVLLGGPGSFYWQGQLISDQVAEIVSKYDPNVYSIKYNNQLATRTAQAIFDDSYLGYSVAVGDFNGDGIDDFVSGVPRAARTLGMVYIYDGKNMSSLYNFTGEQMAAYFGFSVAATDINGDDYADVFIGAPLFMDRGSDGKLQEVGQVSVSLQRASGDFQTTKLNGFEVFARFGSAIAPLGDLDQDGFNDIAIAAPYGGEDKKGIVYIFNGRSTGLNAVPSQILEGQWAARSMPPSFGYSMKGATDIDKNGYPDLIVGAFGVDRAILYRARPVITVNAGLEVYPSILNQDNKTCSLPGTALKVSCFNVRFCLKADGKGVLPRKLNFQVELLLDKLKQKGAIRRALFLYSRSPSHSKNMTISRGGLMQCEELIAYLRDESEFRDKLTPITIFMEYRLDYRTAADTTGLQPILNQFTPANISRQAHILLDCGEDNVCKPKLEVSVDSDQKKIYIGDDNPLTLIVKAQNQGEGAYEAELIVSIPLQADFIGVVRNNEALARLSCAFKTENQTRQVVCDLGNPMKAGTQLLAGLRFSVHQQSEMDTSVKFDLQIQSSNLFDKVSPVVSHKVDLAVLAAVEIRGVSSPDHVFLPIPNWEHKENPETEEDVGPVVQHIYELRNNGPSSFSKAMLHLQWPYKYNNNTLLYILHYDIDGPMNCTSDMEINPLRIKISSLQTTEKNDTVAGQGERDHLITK
receptor αvβ3, sequence (P06756 891-1048 limits assumed): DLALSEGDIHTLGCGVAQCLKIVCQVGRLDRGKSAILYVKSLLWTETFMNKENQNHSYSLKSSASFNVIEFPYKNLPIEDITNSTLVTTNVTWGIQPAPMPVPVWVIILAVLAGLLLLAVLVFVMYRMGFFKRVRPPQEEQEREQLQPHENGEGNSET
receptor αvβ3, sequence (P05106 27-788): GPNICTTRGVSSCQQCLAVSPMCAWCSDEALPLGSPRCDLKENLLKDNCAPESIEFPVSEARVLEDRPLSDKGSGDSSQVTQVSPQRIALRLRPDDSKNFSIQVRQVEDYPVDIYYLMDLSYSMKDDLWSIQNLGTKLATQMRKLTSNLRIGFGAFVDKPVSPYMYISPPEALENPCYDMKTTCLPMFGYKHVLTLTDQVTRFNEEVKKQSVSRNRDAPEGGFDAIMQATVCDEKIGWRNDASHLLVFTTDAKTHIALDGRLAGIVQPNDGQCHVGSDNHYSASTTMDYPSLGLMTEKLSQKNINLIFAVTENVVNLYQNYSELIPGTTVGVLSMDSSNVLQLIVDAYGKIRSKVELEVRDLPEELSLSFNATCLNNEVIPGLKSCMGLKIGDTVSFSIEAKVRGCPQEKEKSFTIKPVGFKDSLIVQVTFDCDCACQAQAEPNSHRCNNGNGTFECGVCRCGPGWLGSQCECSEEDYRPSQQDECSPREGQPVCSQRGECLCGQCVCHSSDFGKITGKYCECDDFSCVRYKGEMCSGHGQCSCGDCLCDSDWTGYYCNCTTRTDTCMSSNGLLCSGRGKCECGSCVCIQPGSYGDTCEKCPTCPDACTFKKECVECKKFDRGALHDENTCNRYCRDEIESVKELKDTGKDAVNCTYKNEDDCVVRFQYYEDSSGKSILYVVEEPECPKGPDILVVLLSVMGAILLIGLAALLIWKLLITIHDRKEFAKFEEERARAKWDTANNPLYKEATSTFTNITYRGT

IC50 (concentration which inhibits 50% of the vitronectin binding to the isolated receptor): 5.3 nM
Inhibition of vitronectin binding to the receptor αvβ3 (qualitative statement): demonstrated experimentally
Compound: O=C(O)CC(Cc1ccc(OCCCNc2ccccn2)cc1)c1ccccc1 (centres unmarked) [3-phenyl-4-{4-[3-(pyridin-2-ylamino)propoxy]phenyl}butyric acid]
